Test results published in publication PMC6389962 (Nature Communications, 2019).

Experiments:
mouse GLP-1 receptor = molecular target: T1, mouse GLP-1 receptor (Mus musculus, UniProt O35659); test: cell-based
T1 sequence (O35659 22-463): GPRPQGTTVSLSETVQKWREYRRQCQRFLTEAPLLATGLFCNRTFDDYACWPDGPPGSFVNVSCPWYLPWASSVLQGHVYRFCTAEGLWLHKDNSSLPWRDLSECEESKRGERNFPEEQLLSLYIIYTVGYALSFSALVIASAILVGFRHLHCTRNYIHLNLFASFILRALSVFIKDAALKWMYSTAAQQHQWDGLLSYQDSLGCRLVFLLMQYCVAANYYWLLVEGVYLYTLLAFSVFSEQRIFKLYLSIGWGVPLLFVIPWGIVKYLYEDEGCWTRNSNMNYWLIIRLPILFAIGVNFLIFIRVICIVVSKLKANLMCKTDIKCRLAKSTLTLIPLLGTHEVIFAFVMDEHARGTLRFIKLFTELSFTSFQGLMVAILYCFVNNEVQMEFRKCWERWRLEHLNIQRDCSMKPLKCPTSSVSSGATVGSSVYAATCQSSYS

in vitro = settings: isolated enzyme neprilysin, pH 8, % remaining analogue
Description: (§1) Stock solutions of the oligomers were prepared at a concentration of 400 µM in a solution of 50 mM HEPES buffer, 50 mM NaCl, 0.05% Tween-80, pH 8.0. Stock solution of NEP 24.11 was prepared at a concentration of 100 µg mL^−1 in water. Stability of oligomers to NEP 24.11 was assessed by conducting protease reaction in a 96-well plates at 20 °C. […] Each compound was also incubated in the absence of the enzyme (12 µL of HEPES buffer and 38 µL of oligomer). […] A portion of the quenched reaction solution was analysed by HPLC. The time course of peptide degradation was determined by integrating the area of each peak in a series of HPLC traces.

NEP 24.11 = NEP 24.11 (Homo sapiens, UniProt P08473); test: in vitro; settings: pH 8
Chain of NEP 24.11 (P08473 whole entry): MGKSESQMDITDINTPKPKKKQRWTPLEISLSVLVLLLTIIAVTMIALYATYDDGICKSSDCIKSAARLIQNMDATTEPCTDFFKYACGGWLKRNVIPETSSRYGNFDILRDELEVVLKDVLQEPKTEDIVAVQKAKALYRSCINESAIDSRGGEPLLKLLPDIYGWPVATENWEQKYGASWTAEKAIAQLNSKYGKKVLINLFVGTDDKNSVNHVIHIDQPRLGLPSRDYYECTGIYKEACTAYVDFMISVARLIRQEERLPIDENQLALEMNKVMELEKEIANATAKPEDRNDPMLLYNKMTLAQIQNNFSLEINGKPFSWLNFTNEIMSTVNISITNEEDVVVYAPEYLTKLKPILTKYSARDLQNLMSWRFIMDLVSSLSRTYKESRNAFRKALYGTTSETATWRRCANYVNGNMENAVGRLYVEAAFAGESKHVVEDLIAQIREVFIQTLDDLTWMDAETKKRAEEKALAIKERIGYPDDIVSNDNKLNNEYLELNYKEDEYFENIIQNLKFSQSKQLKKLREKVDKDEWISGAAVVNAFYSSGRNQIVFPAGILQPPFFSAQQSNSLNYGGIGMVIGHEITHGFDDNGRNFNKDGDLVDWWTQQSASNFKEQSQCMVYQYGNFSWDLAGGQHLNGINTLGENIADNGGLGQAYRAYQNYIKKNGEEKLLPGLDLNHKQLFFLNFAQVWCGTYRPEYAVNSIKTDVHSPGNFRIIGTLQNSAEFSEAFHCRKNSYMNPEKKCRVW
Description: as §1

[1] = Pharmacokinetic evaluation in mice, i.v. (final study, Fig. 5); settings: C57BL/6J mice, LC-MS/MS
Description: Data are mean ± SEM, n = 3. Source data are provided as a Source Data file
After different time points, mice were sacrificed and blood samples were collected. The plasma was separated by centrifugation and the samples were frozen at −80 °C before analysis. A volume of 400 µL of each sample of plasma was mixed with 1 ml of acetonitrile to precipitate the protein and extract the compound. The sample were then vortexed and centrifuged (15,000 × g, 5 min, 16 °C) to sediment the precipitated protein.

[2] = male, C57BL/6J, mouse, in vivo, iv, 1 mg/kg, Concentration (plasma), animal 1
[3] = male, C57BL/6J, mouse, in vivo, iv, 1 mg/kg, Concentration (plasma), animal 2
[4] = male, C57BL/6J, mouse, in vivo, iv, 1 mg/kg, Concentration (plasma), animal 3

Structure (SMILES): CC[C@H](C)[C@H](NC(=O)[C@H](Cc1ccccc1)NC(=O)[C@H](CCC(=O)O)NC(=O)[C@H](CCCCN)NC(=O)[C@H](C)NC(=O)[C@H](C)NC(=O)[C@H](CCC(N)=O)NC(=O)CNC(=O)[C@H](CCC(=O)O)NC(=O)[C@H](CC(C)C)NC(=O)[C@H](Cc1ccc(O)cc1)NC(=O)[C@H](CO)NC(=O)[C@H](CO)NC(=O)[C@@H](NC(=O)[C@H](CC(=O)O)NC(=O)[C@H](CO)NC(=O)[C@@H](NC(=O)[C@H](Cc1ccccc1)NC(=O)[C@@H](NC(=O)CNC(=O)[C@H](CCC(=O)O)NC(=O)CNC(=O)[C@@H](N)Cc1c[nH]cn1)[C@@H](C)O)[C@@H](C)O)C(C)C)C(=O)N[C@@H](C)C(=O)N[C@@H](Cc1c[nH]c2ccccc12)C(=O)N[C@@H](CC(C)C)C(=O)N[C@H](C(=O)N[C@@H](CCCCN)C(=O)NCC(=O)N[C@@H](CCCNC(=N)N)C(=O)NCC(N)=O)C(C)C [compound 1, GLP-1-G^2 (GG2)]
- EC50 (mouse GLP-1 receptor): 0.24 nM
- Emax (mouse GLP-1 receptor; read-out: Top (best-fit value)): 106%
- remaining at 1 h (in vitro): 77.5%
- remaining at 2 h (in vitro): 63.1%
- remaining at 4 h (in vitro): 47.1%
- remaining at 6 h (in vitro): 32.6%
- % remaining analogue (NEP 24.11; isolated enzyme neprilysin, 22 h): 0.6%
- NEP 24.11 t1/2 (NEP 24.11): 3.6 h
- Concentration (plasma) ([1]; time 3 min, animal 3): 3680 nM
- Concentration (plasma) ([1]; time 15 min, animal 3): 60 nM
- Concentration (plasma) ([1]; time 30 min, animal 2): 10 nM
- Concentration (plasma) ([1]; time 30 min, animal 3): 0 nM
- level at time molar at 1 min [1, 2]: 7920 nM
- level at time molar at 1 min [1, 3]: 8370 nM
- level at time molar at 1 min [1, 4]: 10800 nM
- level at time molar at 0.05 h ([1]; male, C57BL/6J, mouse, in vivo, iv, 1 mg/kg, Concentration (plasma), time 3 min, animal 1): 3740 nM
- level at time molar at 0.05 h ([1]; male, C57BL/6J, mouse, in vivo, iv, 1 mg/kg, Concentration (plasma), time 3 min, animal 2): 3500 nM
- level at time molar at 5 min [1, 2]: 1780 nM
- level at time molar at 5 min [1, 3]: 2610 nM
- level at time molar at 5 min [1, 4]: 2540 nM
- level at time molar at 10 min [1, 2]: 360 nM
- level at time molar at 10 min [1, 3]: 430 nM
- level at time molar at 10 min [1, 4]: 380 nM
- level at time molar at […] ([1]; male, C57BL/6J, mouse, in vivo, iv, 1 mg/kg, Concentration (plasma), time 15 min, animal 1): 100 nM
- level at time molar at […] ([1]; male, C57BL/6J, mouse, in vivo, iv, 1 mg/kg, Concentration (plasma), time 15 min, animal 2): 60 nM
- level at time molar at 0.5 h ([1]; male, C57BL/6J, mouse, in vivo, iv, 1 mg/kg, Concentration (plasma), time 30 min, animal 1): 10 nM
